Measured values taken from US10508086B2 (CANCER RESEARCH TECHNOLOGY LIMITED, priority 2014, dated 2019).

Tests used:
Human Full Length PARG = Human Full Length PARG (Homo sapiens (Human), UniProt Q86W56); experiment: PARG in vitro enzyme assay (TR-FRET); format: biochemical; conditions: read-out: PARG_EC50_ENZYME
Outline: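 Full-length human PARG ([…]) incubated with ribosylated PARP substrate (4.5 nM) for 10 min at room temperature in Tris pH 7.4 buffer with EDTA, EGTA, DTT, KCl. Detection by TR-FRET using anti-6HIS XL665 (14 nM final) and streptavidin europium cryptate (0.75 nM final) after 60 min; Em665/Em620 ratio converted to percent inhibition.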

PARG in HeLa cell line = PARG in HeLa cell line (Homo sapiens (Human), UniProt Q86W56); experiment: PARG cell assay (nuclear PAR chains after MMS, immunofluorescence); format: cell-based; conditions: HeLa cells, MMS 50 μg/mL; read-out: PARG Cell IC50 Geomean
Method: This method is based on the detection of endogenous levels of poly (ADP) ribose chains present in the nucleus of HeLa cell line using indirect immunofluorescence. MMS stimulation increases PAR chains for up to 25 mins. After that point, PARG is active and breaks down the PAR chains, until by one hour after stimulation no PAR chains are detectable. Inhibition of PARG maintains PAR chains.
Briefly, following compound treatment and treatment with the DNA damaging agent methylmethanesulfonate (MMS), the cell monolayer is fixed, then permeabilised and incubated with a mouse monoclonal antibody raised against multimers of poly(ADP) ribose. After an overnight incubation, excess antibody is removed by washing and an Alexafluor 488-linked secondary antibody which recognises the mouse monoclonal is added together with a nuclear stain (Hoechst 33342). Images of the cells are then captured and analysed on a High Content Screening platform and the total intensity of the nuclear fluorescent signal at […] is quantified.
HeLa cells, seeded in 384-well plates, at 4000/well in 30 μL RPMI 1640 media, supplemented with 10% FBS and 2 mM Glutamax, were incubated overnight at 37° C., 5% CO2.
The following day, cells were dosed in quadruplicate with compound (10 point dose response) and incubated for 1 h at 37° C., 5% CO2.
At the end of the 1 h dosing period, MMS was added to duplicates at a final concentration of 50 μg/mL, for a further hour.
Media was tipped off and the cells fixed with 50 μL ice-cold 95% MetOH/PBS for 15 mins at −20° C. Following a PBS wash, 50 μL PBS/0.1% Triton was added to the cells for 20 mins. Following another PBS wash, anti-PAR antibody (Calbiochem AM80) was diluted 1:4000 in a buffer (PBS+0.5% FBS+0.05% Tween20) and added to the cells and incubated overnight at 4° C.
The following day, cells were washed three times with PBS and then incubated for 1 hr with secondary antibody (Alexa Fluor® 488 goat anti mouse IgG (H+L)) diluted 1:1000 and Hoechst diluted 1:5000 in buffer (5% FBS in PBS+0.05% Tween20).
Cells were washed three times with PBS and the plate sealed with a light-proof seal.
Images of the cells were captured on a ThermoFisher Celllnsight and the mean total intensity of spots fluorescent at 485 nm in the nucleus was reported.

Sequence of Human Full Length PARG (Q86W56 whole entry): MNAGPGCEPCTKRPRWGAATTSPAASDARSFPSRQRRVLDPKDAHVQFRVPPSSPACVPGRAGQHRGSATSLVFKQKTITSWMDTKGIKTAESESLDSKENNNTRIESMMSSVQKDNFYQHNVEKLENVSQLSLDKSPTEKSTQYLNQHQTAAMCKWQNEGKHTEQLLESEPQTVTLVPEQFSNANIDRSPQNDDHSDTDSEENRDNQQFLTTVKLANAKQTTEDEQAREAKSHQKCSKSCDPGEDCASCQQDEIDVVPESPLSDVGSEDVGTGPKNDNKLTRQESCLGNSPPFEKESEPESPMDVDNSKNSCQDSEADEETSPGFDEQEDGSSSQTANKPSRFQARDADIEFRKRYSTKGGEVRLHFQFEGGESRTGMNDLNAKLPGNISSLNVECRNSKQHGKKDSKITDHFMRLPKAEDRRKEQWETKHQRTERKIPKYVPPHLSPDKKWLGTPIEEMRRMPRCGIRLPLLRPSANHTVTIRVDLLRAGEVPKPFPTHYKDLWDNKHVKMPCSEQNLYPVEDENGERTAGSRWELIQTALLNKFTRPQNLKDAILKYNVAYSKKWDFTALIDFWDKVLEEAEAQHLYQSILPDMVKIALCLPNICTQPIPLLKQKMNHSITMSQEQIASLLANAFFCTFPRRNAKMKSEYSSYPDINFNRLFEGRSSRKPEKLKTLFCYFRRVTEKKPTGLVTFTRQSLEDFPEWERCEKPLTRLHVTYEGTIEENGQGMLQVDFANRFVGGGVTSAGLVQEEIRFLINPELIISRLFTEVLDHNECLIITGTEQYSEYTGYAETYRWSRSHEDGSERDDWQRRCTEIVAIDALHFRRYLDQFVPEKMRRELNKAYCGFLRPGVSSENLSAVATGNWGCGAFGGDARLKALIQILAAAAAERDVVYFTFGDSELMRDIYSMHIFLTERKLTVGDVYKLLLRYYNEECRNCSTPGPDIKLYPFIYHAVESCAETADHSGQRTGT
Sequence of PARG in HeLa cell line (Q86W56 whole entry): as above

Row | SMILES | EC50 (Human Full Length PARG) [nM] | IC50 (PARG in HeLa cell line) [nM]
1 | Cc1nnc(-n2c(=O)[nH]c3cc(F)c(S(=O)(=O)NC4(C)CC4)cc32)o1 [Example 192, 6-Fluoro-N-(1-methylcyclopropyl)-3-(5-methyl-1,3,4-oxadiazol-2-yl)-2-oxo-1H-benzimidazole-5-sulfonamide] | 1460 | 11700
2 | Cc1nnc(-n2c(=O)[nH]c3cc(F)c(S(=O)(=O)NC4(CF)CC4)cc32)o1 [Example 194, 6-Fluoro-N-[1-(fluoromethyl)cyclopropyl]-3-(5-methyl-1,3,4-oxadiazol-2-yl)-2-oxo-1H-benzimidazole-5-sulfonamide] | 1240 | > 30000
3 | Cn1c(=O)n(-c2nnc(C(F)F)o2)c2cc(S(=O)(=O)NC3(C)CC3)ccc21 [Example 195, 3-[5-(Difluoromethyl)-1,3,4-oxadiazol-2-yl]-1-methyl-N-(1-methylcyclopropyl)-2-oxo-benzimidazole-5-sulfonamide] | 1010 | 457
4 | Cn1c(=O)n(-c2nnc(C(F)F)o2)c2cc(S(=O)(=O)NC3(CF)CC3)ccc21 [Example 196, 3-[5-(Difluoromethyl)-1,3,4-oxadiazol-2-yl]-N-[1-(fluoromethyl)cyclopropyl]-1-methyl-2-oxo-benzimidazole-5-sulfonamide] | 789 | 469
5 | CCn1c(=O)n(-c2nnc(C(F)F)o2)c2cc(S(=O)(=O)NC3(C)CC3)ccc21 [Example 201, 3-[5-(Difluoromethyl)-1,3,4-oxadiazol-2-yl]-1-ethyl-N-(1-methylcyclopropyl)-2-oxo-benzimidazole-5-sulfonamide] | 759 | 189
6 | CCn1c(=O)n(-c2nnc(C(F)F)o2)c2cc(S(=O)(=O)NC3(CF)CC3)ccc21 [Example 202, 3-[5-(Difluoromethyl)-1,3,4-oxadiazol-2-yl]-1-ethyl-N-[1-(fluoromethyl)cyclopropyl]-2-oxo-benzimidazole-5-sulfonamide] | 421 | 240
7 | COCCn1c(=O)n(-c2ccc(C)nn2)c2cc(S(=O)(=O)NC3(CF)CC3)c(F)cc21 [Example 203, 6-Fluoro-N-[1-(fluoromethyl)cyclopropyl]-1-(2-methoxyethyl)-3-(6-methylpyridazin-3-yl)-2-oxo-benzimidazole-5-sulfonamide] | 4830 | 3700
8 | Cc1ccc(-n2c(=O)n(C)c3cc(F)c(S(=O)(=O)NC4(CF)CC4)cc32)nn1 [Example 204, 6-Fluoro-N-[1-(fluoromethyl)cyclopropyl]-1-methyl-3-(6-methylpyridazin-3-yl)-2-oxo-benzimidazole-5-sulfonamide] | 6190 | 4230
9 | Cc1ccc(-n2c(=O)n(C)c3cc(F)c(S(=O)(=O)NC4(C)CC4)cc32)nn1 [Example 205, 6-Fluoro-1-methyl-N-(1-methylcyclopropyl)-3-(6-methylpyridazin-3-yl)-2-oxo-benzimidazole-5-sulfonamide] | 6690 | 5760
10 | Cn1c(=O)n(-c2ccc(C(F)(F)F)nn2)c2cc(S(=O)(=O)NC3(CF)CC3)c(F)cc21 [Example 206, 6-Fluoro-N-[1-(fluoromethyl)cyclopropyl]-1-methyl-2-oxo-3-[6-(trifluoromethyl)pyridazin-3-yl]benzimidazole-5-sulfonamide] | 3970 | 970
11 | CCOC(=O)c1oc2ccc(S(=O)(=O)NC3(C)CC3)cc2c1C [Example 218, Ethyl 3-methyl-5-[(1-methylcyclopropyl)sulfamoyl]benzofuran-2-carboxylate] | 15800 | 2810

The next lines start with the values.

Row | EC50 (Human Full Length PARG) [nM] | IC50 (PARG in HeLa cell line) [nM] | SMILES
12 | 153 | 40 | C#CCn1c(=O)n(-c2nnc(C(F)F)s2)c2cc(S(=O)(=O)NC3(CF)CC3)ccc21 [Example 193, 3-[5-(Difluoromethyl)-1,3,4-thiadiazol-2-yl]-N-[1-(fluoromethyl)cyclopropyl]-2-oxo-1-prop-2-ynyl-benzimidazole-5-sulfonamide]
13 | 759 | 538 | Cc1nnc(-n2c(=O)n(C)c3cc(F)c(S(=O)(=O)NC4(C)CC4)cc32)o1 [Example 197, 6-Fluoro-1-methyl-N-(1-methylcyclopropyl)-3-(5-methyl-1,3,4-oxadiazol-2-yl)-2-oxo-benzimidazole-5-sulfonamide]
14 | 419 | 297 | Cc1nnc(-n2c(=O)n(CCF)c3cc(F)c(S(=O)(=O)NC4(C)CC4)cc32)o1 [Example 198, 6-Fluoro-1-(2-fluoroethyl)-N-(1-methylcyclopropyl)-3-(5-methyl-1,3,4-oxadiazol-2-yl)-2-oxo-benzimidazole-5-sulfonamide]
15 | 314 | 145 | CCn1c(=O)n(-c2nnc(C(F)F)o2)c2cc(S(=O)(=O)NC3(C)CC3)c(F)cc21 [Example 199, 3-[5-(Difluoromethyl)-1,3,4-oxadiazol-2-yl]-1-ethyl-6-fluoro-N-(1-methylcyclopropyl)-2-oxo-benzimidazole-5-sulfonamide]
16 | 133 | 24 | CCn1c(=O)n(-c2nnc(C(F)F)s2)c2cc(S(=O)(=O)NC3(C)CC3)c(F)cc21 [Example 207, 3-[5-(Difluoromethyl)-1,3,4-thiadiazol-2-yl]-1-ethyl-6-fluoro-N-(1-methylcyclopropyl)-2-oxo-benzimidazole-5-sulfonamide]
17 | 930 | 219 | Cn1c(=O)n(-c2nnc(C(F)F)o2)c2cc(S(=O)(=O)NC3(C)CC3)c(F)cc21 [Example 209, 3-[5-(Difluoromethyl)-1,3,4-oxadiazol-2-yl]-6-fluoro-1-methyl-N-(1-methylcyclopropyl)-2-oxo-benzimidazole-5-sulfonamide]
18 | 349 | 224 | Cn1c(=O)n(-c2nnc(C(F)F)o2)c2cc(S(=O)(=O)NC3(CF)CC3)c(F)cc21 [Example 210, 3-[5-(Difluoromethyl)-1,3,4-oxadiazol-2-yl]-6-fluoro-N-[1-(fluoromethyl)cyclopropyl]-1-methyl-2-oxo-benzimidazole-5-sulfonamide]
19 | 165 | 1520 | NC(=O)Cn1c(=O)n(-c2nnc(C(F)F)s2)c2cc(S(=O)(=O)NC3(CF)CC3)c(F)cc21 [Example 214, 2-[3-[5-(Difluoromethyl)-1,3,4-thiadiazol-2-yl]-6-fluoro-5-[[1-(fluoromethyl)cyclopropyl]sulfamoyl]-2-oxo-benzimidazol-1-yl]acetamide]
20 | 170 | 86 | N#CCn1c(=O)n(-c2nnc(C(F)F)s2)c2cc(S(=O)(=O)NC3(CF)CC3)c(F)cc21 [Example 215, 1-(Cyanomethyl)-3-[5-(difluoromethyl)-1,3,4-thiadiazol-2-yl]-6-fluoro-N-[1-(fluoromethyl)cyclopropyl]-2-oxo-benzimidazole-5-sulfonamide]
21 | 156 | 36 | CC1(NS(=O)(=O)c2cc3c(cc2F)n(CCF)c(=O)n3-c2nnc(C(F)F)s2)CC1 [Example 217, 3-[5-(Difluoromethyl)-1,3,4-thiadiazol-2-yl]-6-fluoro-1-(2-fluoroethyl)-N-(1-methylcyclopropyl)-2-oxo-benzimidazole-5-sulfonamide]
